According to ChEMBL document CHEMBL3872275, “Synthesis and antiproliferative activity of 2-chlorophenyl carboxamide thienopyridines” (Bioorg Med Chem Lett, 2017):

Assays:
[1] = Growth inhibition of human HCT116 cells at 10 uM after 48 hrs by SRB assay relative to control; format: functional; details: HCT-116, 48 h, values are per cent of control
[2] = Antiproliferative activity against human MDA-MB-231 cells assessed as cell growth at 1 uM after 3 days by thymidine incorporation assay relative to control; format: functional; details: MDA-MB-231, 72 h, read-out: Activity
[3] = Growth inhibition of human MDA-MB-231 cells at 10 uM after 48 hrs by SRB assay relative to control; format: functional; details: MDA-MB-231, 48 h, read-out: GI
[4] = Antiproliferative activity against human MDA-MB-468 cells assessed as cell growth at 1 uM after 3 days by thymidine incorporation assay relative to control; format: functional; details: MDA-MB-468, 72 h, read-out: Activity
[5] = Growth inhibition of human MDA-MB-468 cells at 10 uM after 48 hrs by SRB assay relative to control; format: functional; details: MDA-MB-468, 48 h, values are per cent of control
[6] = Antiproliferative activity against human HCT116 cells assessed as cell growth at 1 uM after 3 days by thymidine incorporation assay relative to control; format: functional; details: HCT-116, 72 h, read-out: Activity
[7] = Antiproliferative activity against human HCT116 cells after 3 days by thymidine incorporation assay; format: functional, cell-based; details: HCT-116, 72 h
[8] = Antiproliferative activity against human MDA-MB-231 cells after 3 days by thymidine incorporation assay; format: functional, cell-based; details: MDA-MB-231, 72 h
[9] = Antiproliferative activity against human MDA-MB-468 cells after 3 days by thymidine incorporation assay; format: functional, cell-based; details: MDA-MB-468, 72 h
[10] = Antiproliferative activity against human K562 cells after 3 days by thymidine incorporation assay; format: functional, cell-based; details: K562, 72 h

Nc1c(C(=O)Nc2ccccc2Cl)sc2nc3c(cc12)C(=O)CCC3
growth, % of control at 10 µM [1]: 76%
growth at 1 µM [2]: 104%
inhibition of growth at 10 µM [3]: 70%
growth at 1 µM [4]: 94%
growth, % of control at 10 µM [5]: 25%
growth at 1 µM [6]: 99%

Nc1c(C(=O)Nc2ccccc2Cl)sc2nc3c(cc12)CCCCC3
growth at 1 µM [2]: 101%
growth at 1 µM [4]: 81%
growth at 1 µM [6]: 94%

Nc1c(C(=O)Nc2ccccc2Cl)sc2nc3c(cc12)CCCC3
growth, % of control at 10 µM [1]: 107%
growth at 1 µM [2]: 119%
inhibition of growth at 10 µM [3]: 100%
growth at 1 µM [4]: 95%
growth, % of control at 10 µM [5]: 91%
growth at 1 µM [6]: 94%

Nc1c(C(=O)Nc2ccccc2Cl)sc2nc3c(cc12)CCCCCC3
growth at 1 µM [2]: 56%
growth at 1 µM [4]: 100%
growth at 1 µM [6]: 71%

O=c1c2sc3nc4c(cc3c2nnn1-c1ccccc1Cl)CCCCC4
growth at 1 µM [2]: 105%
growth at 1 µM [4]: 90%
growth at 1 µM [6]: 99%

O=C1CCCc2nc3sc4c(=O)n(-c5ccccc5Cl)nnc4c3cc21
growth, % of control at 10 µM [1]: 96%
growth at 1 µM [2]: 97%
inhibition of growth at 10 µM [3]: 94%
growth at 1 µM [4]: 91%
growth, % of control at 10 µM [5]: 86%
growth at 1 µM [6]: 97%

Cc1nc2sc(C(=O)Nc3ccccc3Cl)c(N)c2cc1C(C)O (stereo not drawn)
growth at 1 µM [2]: 108%
growth at 1 µM [4]: 96%
growth at 1 µM [6]: 97%

Nc1c(C(=O)Nc2ccccc2Cl)sc2nc3c(cc12)C(O)CCC3 (stereo not drawn)
growth, % of control at 10 µM [1]: 30%
growth at 1 µM [2]: 30%
inhibition of growth at 10 µM [3]: 58%
growth at 1 µM [4]: 14%
IC50 [7]: 616 nM
growth, % of control at 10 µM [5]: 26%
growth at 1 µM [6]: 11%
IC50 [8]: 675 nM
IC50 [9]: 546 nM
IC50 [10]: 431 nM

O=c1c2sc3nc4c(cc3c2nnn1-c1ccccc1Cl)C(O)CCC4 (stereo not drawn)
growth, % of control at 10 µM [1]: 102%
growth at 1 µM [2]: 91%
inhibition of growth at 10 µM [3]: 86%
growth at 1 µM [4]: 80%
growth, % of control at 10 µM [5]: 91%
growth at 1 µM [6]: 96%

CC(=O)OC1CCCc2nc3sc4c(=O)n(-c5ccccc5Cl)nnc4c3cc21 (stereo not drawn)
growth at 1 µM [2]: 95%
growth at 1 µM [4]: 93%
growth at 1 µM [6]: 98%

O=c1c2sc3nc4c(cc3c2nnn1-c1ccccc1Cl)CCCCCC4
growth at 1 µM [2]: 92%
growth at 1 µM [4]: 85%
growth at 1 µM [6]: 90%

CC(=O)OC1CCCc2nc3sc4c(=O)n(-c5ccccc5Cl)c(C)nc4c3cc21 (stereo not drawn)
growth at 1 µM [2]: 82%
growth at 1 µM [4]: 64%
growth at 1 µM [6]: 92%

Nc1c(C(=O)Nc2ccccc2Cl)sc2nc3c(cc12)CCCCCCCC3
growth at 1 µM [2]: 104%
growth at 1 µM [4]: 78%
growth at 1 µM [6]: 91%

Cc1nc2sc3c(=O)n(-c4ccccc4Cl)nnc3c2cc1C(C)O (stereo not drawn)
growth at 1 µM [2]: 100%
growth at 1 µM [4]: 118%
growth at 1 µM [6]: 100%

CC(=O)OC1CCCc2nc3sc(C(=O)Nc4ccccc4Cl)c(N)c3cc21 (stereo not drawn)
growth at 1 µM [2]: 10%
growth at 1 µM [4]: 7%
IC50 [7]: 184 nM
growth at 1 µM [6]: 3%
IC50 [8]: 201 nM
IC50 [9]: 181 nM
IC50 [10]: 192 nM

O=c1c2sc3nc4c(cc3c2nnn1-c1ccccc1Cl)CCCC4
growth, % of control at 10 µM [1]: 88%
growth at 1 µM [2]: 94%
inhibition of growth at 10 µM [3]: 81%
growth at 1 µM [4]: 81%
growth, % of control at 10 µM [5]: 88%
growth at 1 µM [6]: 99%

CC(=O)c1cc2c(nc1C)sc1c(=O)n(-c3ccccc3Cl)nnc12
growth at 1 µM [2]: 103%
growth at 1 µM [4]: 96%
growth at 1 µM [6]: 98%

CC(=O)c1cc2c(N)c(C(=O)Nc3ccccc3Cl)sc2nc1C
growth at 1 µM [2]: 100%
growth at 1 µM [4]: 104%
growth at 1 µM [6]: 87%

O=c1c2sc3nc4c(cc3c2nnn1-c1ccccc1Cl)CCCCCCCC4
growth at 1 µM [2]: 91%
growth at 1 µM [4]: 82%
growth at 1 µM [6]: 97%
